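Five compound concentrations were applied to cells in 96-well plates for 48 hours; endpoints were derived by simple linear interpolation of the resulting dose-response curve. GI50 = concentration required for 50% inhibition of growth. TGI: concentration producing complete growth inhibition.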
How the values were obtained:
Test in all cases: growth of human tumour cells (NCI), 48 h
BT-549 breast = test system: BT-549 breast
HCC-2998 colon = test system: HCC-2998 colon
IGROV1 ovarian = test system: IGROV1 ovarian
KM12 colon = test system: KM12 colon
MDA-MB-435 = test system: MDA-MB-435
OVCAR-5 ovarian = test system: OVCAR-5 ovarian
RXF 393 renal = test system: RXF 393 renal
SK-MEL-5 melanoma = test system: SK-MEL-5 melanoma
T-47D breast = test system: T-47D breast
UACC-62 melanoma = test system: UACC-62 melanoma

Structure (SMILES)	TGI (BT-549 breast)	TGI (HCC-2998 colon)	TGI (IGROV1 ovarian)	TGI (KM12 colon)	TGI (MDA-MB-435)	TGI (OVCAR-5 ovarian)	TGI (RXF 393 renal)	TGI (SK-MEL-5 melanoma)	TGI (T-47D breast)	TGI (UACC-62 melanoma)	GI50 (BT-549 breast)	GI50 (HCC-2998 colon)	GI50 (IGROV1 ovarian)	GI50 (KM12 colon)	GI50 (MDA-MB-435)	GI50 (OVCAR-5 ovarian)	GI50 (RXF 393 renal)	GI50 (T-47D breast)	GI50 (UACC-62 melanoma)
Cc1c(C#N)c(=N)oc2ccccc12	> 100 µM	> 100 µM	> 100 µM	> 100 µM	> 100 µM	> 100 µM	> 100 µM	> 100 µM	> 100 µM	> 100 µM									
COC1(OC)C=CC(=O)C=C1	14.2 µM	15.4 µM	4.77 µM	25.8 µM	12.8 µM	> 41.6 µM	4.51 µM	46.2 µM	10.7 µM	4.08 µM									
COC(=O)c1cc(C)ccc1/C=C1\Cc2c(C)cc(C)cc2C1=O	> 75.7 µM	> 100 µM	> 100 µM	> 100 µM	> 100 µM	> 100 µM	44.5 µM	> 100 µM	> 100 µM	65.1 µM									
Clc1nc2c(C#Cc3ccccc3)ncnc2n1C1CCCCO1 (centres undefined)	49.7 µM	28.7 µM	29.2 µM	35.1 µM	94.1 µM	25.9 µM	26.9 µM	24.8 µM	> 100 µM	27 µM									
CC1CN=C(c2ccc(-c3nc(-c4ccc(C5=NCC(C)N5)cc4)nc(N(C)C)n3)cc2)N1 (centres undefined)	13.7 µM	3.76 µM	18 µM	8.96 µM	3.09 µM	10.8 µM	12.8 µM	14 µM	12.9 µM	3.41 µM									
N#Cc1c(N2CCN(c3ccc([N+](=O)[O-])cc3)CC2)[n+](=O)c2ccc(-c3ccc([N+](=O)[O-])cc3)cc2n1[O-]	> 100 µM	> 57.3 µM	> 77.8 µM	> 100 µM	> 100 µM	> 100 µM	> 100 µM	17.5 µM	> 100 µM	> 100 µM									
COC(=O)C1CC23C=CCN4CC(C2C)C2(c5ccccc5NC12)C43 (centres undefined)	> 100 µM	> 100 µM	> 100 µM	> 100 µM	> 100 µM	> 100 µM	> 100 µM	> 100 µM	> 100 µM	> 100 µM									
N#C/C(=C1/c2cc([N+](=O)[O-])ccc2-c2c1cc([N+](=O)[O-])cc2[N+](=O)[O-])N1CCCCC1	> 100 µM	> 100 µM	> 100 µM	> 100 µM	> 100 µM	> 100 µM	> 100 µM	> 100 µM	> 100 µM	> 100 µM									
O=C(O)CCSC1=NCCN1	> 100 µM	> 100 µM	> 100 µM	> 100 µM	> 100 µM	> 100 µM	> 100 µM	> 100 µM	> 100 µM	> 100 µM									
CC1=NN2C(=N)/C(=C/c3ccccc3)C(=O)N=C2S1	> 100 µM	> 100 µM	> 100 µM	> 100 µM	> 100 µM	> 100 µM	> 100 µM	> 100 µM	> 100 µM	> 100 µM									
C=CC(OC(C)=O)c1ccc(OC(C)=O)cc1 (centres undefined)	23.9 µM	18.6 µM	29.5 µM	18.6 µM	11.9 µM	28.1 µM	28.1 µM	28.7 µM	8.24 µM	28.1 µM									
COc1cc2c(cc1O)CCN(C)[C@H]2Cc1ccc(Oc2c(O)c(OC)cc3c2C[C@H]2c4c(c(OC)c(OC)c(OC)c4-3)CCN2C)cc1	11.8 µM	8.09 µM	10.7 µM	8.89 µM	8.7 µM	13.2 µM	6.46 µM	7.65 µM	12.2 µM	9.44 µM									
Cc1cc2nc(-c3c(N)ncc(C#N)c3-c3ccc(Cl)cc3)[nH]c2cc1C	> 100 µM	> 100 µM	> 100 µM	> 100 µM	> 100 µM	> 100 µM	13.7 µM	33.4 µM	> 100 µM	53.2 µM	37.6 µM	20.9 µM	18.7 µM	14.8 µM	26.2 µM	14.7 µM	3.18 µM	4.63 µM	11 µM
COC(=O)[C@@H]1C=C[C@H](NC(C)=O)C1	> 100 µM	> 100 µM	> 100 µM	> 100 µM	> 100 µM	> 100 µM	> 100 µM	> 100 µM	> 100 µM	> 100 µM									
O=[N+]([O-])c1ccc2nc(/C=C(\O)c3ccc(Cl)cc3)c(/C=C(\O)c3ccc(Cl)cc3)nc2c1	> 100 µM	> 100 µM	> 100 µM	> 100 µM	> 100 µM	> 100 µM	> 100 µM	> 100 µM	> 100 µM	> 100 µM									
COc1cc2oc(-c3ccc4c(c3)OCO4)c(OC)c(=O)c2c(O)c1OC	> 50 µM	> 50 µM	> 50 µM	> 50 µM	> 50 µM	> 50 µM	> 50 µM	> 50 µM	> 50 µM	> 50 µM									

Structure (SMILES)	TGI (BT-549 breast)	TGI (HCC-2998 colon)	TGI (IGROV1 ovarian)	TGI (KM12 colon)	TGI (MDA-MB-435)	TGI (OVCAR-5 ovarian)	TGI (RXF 393 renal)	TGI (SK-MEL-5 melanoma)	TGI (T-47D breast)	TGI (UACC-62 melanoma)	GI50 (BT-549 breast)	GI50 (HCC-2998 colon)	GI50 (IGROV1 ovarian)	GI50 (KM12 colon)	GI50 (MDA-MB-435)	GI50 (OVCAR-5 ovarian)	GI50 (RXF 393 renal)	GI50 (T-47D breast)	GI50 (UACC-62 melanoma)
C=CCOC1(CC=C)C(=O)OC2C(O)COC21O (centres undefined)	> 100 µM	> 100 µM	> 100 µM	> 100 µM	> 100 µM	> 100 µM	> 100 µM	> 100 µM	> 100 µM	> 100 µM									
COc1ccc(OC)c(C[P+](c2ccccc2)(c2ccccc2)c2ccccc2)c1	29.1 µM	26.2 µM	21.7 µM	14.1 µM	13.7 µM	> 100 µM	25.8 µM	3.32 µM	> 90 µM	12.8 µM									
Nn1c(Sc2nc3ccccc3c(=O)n2N)nc2ccccc2c1=O	6.38 µM	30.7 µM	23.3 µM	> 62.3 µM	> 49.5 µM	40.6 µM	25.1 µM	11.5 µM	> 51.8 µM	25.6 µM									
CC(=Nc1cc(Cl)cc(Cl)c1)c1ccncc1	> 100 µM	> 100 µM	> 100 µM	> 100 µM	> 100 µM	> 100 µM	> 100 µM	> 100 µM	> 100 µM	> 100 µM									
C/C(=N/NC(=S)N1CCN(C(=S)N/N=C(/C)c2ccccn2)CC1)c1ccccn1	> 100 µM	> 100 µM	> 100 µM	> 100 µM	> 100 µM	> 100 µM	41.4 µM	> 80.7 µM	42.5 µM	> 100 µM									
CC1CN=C(c2ccc(CN3CCC(C4CCN(Cc5ccc(C6=NCC(C)N6)cc5)CC4)CC3)cc2)N1 (centres undefined)	> 100 µM	30.9 µM	> 100 µM	31.8 µM	51.6 µM	65.1 µM	33.5 µM	> 100 µM	49.4 µM	41.7 µM									
Cc1ccc(NC2=N/C(=C/c3ccco3)C(Cl)=N2)cc1	> 100 µM	> 49.7 µM	> 100 µM	> 100 µM	> 100 µM	> 100 µM	> 100 µM	> 100 µM	> 100 µM	> 100 µM									
COc1cc2c(c(OC)c1)C(=O)O[C@H](C)CCCC/C=C/C2	> 35.1 µM	> 32.9 µM	> 31.1 µM	> 35.2 µM	12.9 µM	> 32.7 µM	25.2 µM	11.2 µM	> 31.6 µM	> 58 µM									
C=CCc1ccccc1C1CC2(C(=O)OC)OC1C(C(=O)OC)=C2C(=O)OC (centres undefined)	> 10 µM	> 10 µM	> 10 µM	> 10 µM	> 10 µM	> 10 µM	> 10 µM	> 10 µM	> 10 µM	> 10 µM									
O=C1c2ccccc2C(=O)c2nn(N=P(CP(=Nn3nc4c(n3)C(=O)c3ccccc3C4=O)(c3ccccc3)c3ccccc3)(c3ccccc3)c3ccccc3)nc21	> 100 µM	> 100 µM	> 100 µM	> 100 µM	> 100 µM	> 100 µM	> 100 µM	> 100 µM	> 100 µM	> 100 µM									
O=[N+]([O-])c1ccc2c(c1)n1c(N3CCCC3)[n+]3ccccc3c1c1c3cccc[n+]3c(N3CCCC3)n21	> 100 µM	> 100 µM	> 100 µM	> 100 µM	> 100 µM	> 100 µM	> 100 µM	> 100 µM	> 100 µM	> 100 µM									
Cc1ccc(/C=N\NC(=O)c2ccncc2)s1	> 100 µM	> 100 µM	> 100 µM	> 100 µM	> 100 µM	> 100 µM	> 100 µM	> 100 µM	> 100 µM	> 100 µM									
CNC(=O)N(CCC#N)CCCN(C(=O)N(C)C)c1ccccc1	> 100 µM	> 100 µM	> 100 µM	> 100 µM	> 100 µM	> 100 µM	> 100 µM	> 100 µM	> 100 µM	> 100 µM									
O=c1[nH]c2cc([N+](=O)[O-])c(Nc3c4ccccc4nc4ccccc34)c([N+](=O)[O-])c2[nH]1	23 µM	5.75 µM	3.04 µM	10.9 µM	8.62 µM	7.08 µM	10.1 µM	7.65 µM	8.83 µM	4.53 µM									
COc1cc(C)cc2c(-c3c(O)cc(O)c4c3C[C@H](C)N[C@H]4C)cc(-c3cc(-c4c(O)cc(O)c5c4C[C@H](C)N[C@H]5C)c4cc(C)cc(OC)c4c3O)c(O)c12	> 100 µM	> 100 µM	> 100 µM	> 100 µM	> 100 µM	> 100 µM	> 100 µM	> 100 µM	> 100 µM	> 100 µM									

— PubChem BioAssay (NCI)
